Laboratory results reported in US7749981B2, “Drug-eluting stents coated with non-nucleotide P2Y12 receptor antagonist compound” (Inspire Pharmaceuticals, Inc., priority 2005, dated 2010).
Read-outs that look alike come from different tables or passages of the source.

System: washed human platelets
Experiment: Inhibition of ADP-induced platelet aggregation in washed human platelets
Type: cell-based
Conditions: for activity as antagonists of P2Y12-mediated platelet aggregation (in words): comment on Table 1 data; for IC50: agonist challenge (ADP) typically 1-5 μM, average of two experiments or more
Description: Isolation of Platelets: Human blood is obtained from informed healthy adult volunteers. Blood is collected into one-sixth volume of acid/citrate/dextrose (ACD) buffer (85 mM sodium citrate, 65 mM citric acid, and 100 mM glucose). Collected blood is placed in a water bath at 37° C. for 30 minutes. Blood is then centrifuged at 275×g for 16 minutes at room temperature and the platelet-rich plasma is removed and centrifuged at 2200×g for 13 minutes at room temperature. The platelet pellet is resuspended in 40 mL of HEPES-buffered Tyrode's solution (137 mM NaCl, 2.7 mM KCl, 1 mM MgCl2, 2 mM CaCl2, 12 mM NaHCO3, 0.36 mM NaH2PO4, 5.5 mM glucose, 5 mM HEPES pH 7.4, 0.35% bovine serum albumin or 0.35% human serum albumin) containing 10 U/mL heparin and 5 μM (final concentration) prostaglandin 12 (PGI2). The platelet suspension is incubated in a 37° C. water bath for 10 minutes and then 5 μM (final conc.) PGI2 is added just before centrifugation at 1900×g for 8 minutes. The resulting pellet is resuspended in 40 mL of HEPES-buffered Tyrode's solution containing 5 μM (final concentration) PGI2 and then is incubated for 10 minutes in a 37° C. water bath. A small aliquot (500 μL) of the platelet suspension is removed for platelet counting. Prior to centrifugation 5 μM (final concentration) PGI2 is added to the suspension and then the suspension is centrifuged at 1900×g for 8 minutes. The pellet is resuspended at a density of 5×10^8 cells/mL in HEPES-buffered Tyrode's solution containing 0.05 U/mL apyrase.
Aggregation Studies: ADP-induced platelet aggregation is determined by measuring the transmission of light through a 0.5 ml suspension of stirred (1000 rpm) washed platelets in a lumi-aggregometer at 37° C. (Chrono-Log Corp. Havertown, Pa.). The baseline of the instrument is set using 0.5 ml of Hepes-buffered Tyrode's solution. Prior to aggregation measurements, the platelet suspension is supplemented with 1 mg/ml fibrinogen. Platelet aggregation is initiated by the addition of indicated concentrations of ADP or other agonists, and the light transmission is continuously recorded for at least 8 min. When inhibitors of platelet aggregation are tested, platelets are incubated for 2 min in the presence of indicated concentrations of inhibitor before addition of ADP or other agonists, and the response is recorded for at least 8 min. The potency of agonists and inhibitors of platelet aggregation is calculated from both the rate of aggregation and the maximal extent of aggregation obtained for each determination by fitting the data to a four-parameter logistic equation using the GraphPad software package (GraphPad Corp. San Diego, Calif.).
IC50 values represent the concentration of antagonist necessary to inhibit by 50% the aggregation elicited by a given concentration of ADP.
Platelet IC50 data were determined using washed human platelets, according to the protocol of example 14. Agonist challenge (ADP) typically in the range of 1-5 μM.

[1] = read-out: PLATELET DATA IC50 (uM) Washed Platelets, washed human platelets
[2] = Homo sapiens, Platelet, read-out: PLATELET DATA IC50 (uM) Washed Platelets, washed human platelets

Compound | activity as antagonists of P2Y12-mediated platelet aggregation (in words) (washed human platelets) | IC50 [1] [µM] | IC50 [2] [µM]
2-{6-[6-(3-Ethyl-ureido)-purin-9-yl]-2-phenylethynyl-tetrahydro-furo[3,4-d][1,3]dioxol-4-ylmethoxy}-nicotinic acid [Compound 26] | show P2Y12 antagonist activity | 1 | 
CCNC(=O)Nc1ncnc2c1ncn2C1OC(C(=O)N2CCC[C@H]2C(=O)O)C2OC(c3ccccc3)OC21 (stereo in doubt) [Compound 69, 1-{6-[6-(3-Ethyl-ureido)-purin-9-yl]-2-trans-phenyl-tetrahydro-furo[3,4-d][1,3]dioxole-4-carbonyl}-L-pyrrolidine-2-carboxylic acid] | improved potency | 0.441 | 
CC1(C)OC2C(COc3ccc(C(=O)O)cc3C(=O)O)OC(n3cnc4c(NC(=O)Nc5ccccc5)ncnc43)C2O1 (stereo not drawn) [Compound 1, 4-{2,2-Dimethyl-6-[6-(3-phenyl-ureido)-purin-9-yl]-tetrahydro-furo[3,4-d][1,3]dioxol-4-ylmethoxy}-isophthalic acid] | show P2Y12 antagonist activity |  | 6.6
O=C(Nc1ccccc1)Nc1ncnc2c1ncn2C1OC(COc2ncccc2C(=O)O)C2OC(c3ccccc3C(F)(F)F)OC21 (stereo not drawn) [Compound 14, 2-[6-[6-(3-Phenyl-ureido)-purin-9-yl]-2-(2-trifluoromethyl-phenyl)-tetrahydro-furo[3,4-d][1,3]dioxol-4-ylmethoxy]-nicotinic acid] | show P2Y12 antagonist activity |  | 8.1
O=C(Nc1ccccc1)Nc1ncnc2c1ncn2C1OC(COc2ncccc2C(=O)O)C2OC(c3ccc4ccccc4c3)OC21 (stereo not drawn) [Compound 19, 2-{2-Naphthalen-2-yl-6-[6-(3-phenyl-ureido)-purin-9-yl]-tetrahydro-furo[3,4-d][1,3]dioxol-4-ylmethoxy}-nicotinic acid] | show P2Y12 antagonist activity |  | 18
CCCCCCNC(=O)Nc1ncnc2c1ncn2C1OC(COc2ncccc2C(=O)O)C2OC(c3ccccc3)OC21 (stereo not drawn) [Compound 24, 2-{6-[6-(3-Hexyl-ureido)-purin-9-yl]-2-phenyl-tetrahydro-furo[3,4-d][1,3]dioxol-4-ylmethoxy}-nicotinic acid] | show P2Y12 antagonist activity |  | 2.15
O=C(Nc1ncnc2c1ncn2C1OC(C(=O)N2CCCC2C(=O)O)C2OC(Cc3ccccc3)OC21)NC1CCCC1 (stereo not drawn) [Compound 36, 1-{2-Benzyl-6-[6-(3-cyclopentyl-ureido)-purin-9-yl]-tetrahydro-furo[3,4-d][1,3]dioxole-4-carbonyl}-pyrrolidine-2-carboxylic acid] | show P2Y12 antagonist activity |  | 0.75
CS(=O)(=O)NC(=O)NCC1OC(n2cnc3c(NC(=O)Nc4ccccc4)ncnc32)C2OC(Cc3ccccc3)OC12 (stereo not drawn) [Compound 37, 1-(9-{2-Benzyl-6-[(3-methylsulfonyl-ureido)-methyl]-tetrahydro-furo[3,4-d][1,3]dioxol-4-yl}-9H-purin-6-yl)-3-phenyl-urea] | show P2Y12 antagonist activity |  | 15
CCNC(=O)Nc1ncnc2c1ncn2C1OC(C(=O)N2CCC[C@H]2C(=O)O)C2O[C@H](c3ccccc3)OC21 (stereo partly drawn) [Compound 65, 1-{6-[6-(3-Ethyl-ureido)-purin-9-yl]-2-trans-phenyl-tetrahydro-furo[3,4-d][1,3]dioxole-4-carbonyl}-L-pyrrolidine-2-carboxylic acid] | improved potency |  | 0.728
CCNC(=O)Nc1ncnc2c1ncn2C1OC(C(=O)N2CCC[C@@H]2C(=O)O)C2O[C@H](/C=C/c3ccccc3)OC21 (stereo partly drawn) [Compound 70, 1-{6-[6-(3-Ethyl-ureido)-purin-9-yl]-2-trans-styryl-tetrahydro-furo[3,4-d][1,3]dioxole-4-carbonyl}-D-pyrrolidine-2-carboxylic acid] | improved potency |  | 0.397
CCNC(=O)Nc1ncnc2c1ncn2C1OC(COCc2ccccc2C(=O)O)C2O[C@H](c3ccccc3)OC21 (stereo partly drawn) [Compound 107, 2-{6-[6-(3-Ethyl-ureido)-purin-9-yl]-2-trans-phenyl-tetrahydro-furo[3,4-d][1,3]dioxol-4-ylmethoxymethyl}-benzoic acid] |  | 0.057 | < 0.1
CCNC(=O)Nc1ncnc2c1ncn2C1OC(COCc2ccccc2C(=O)O)C2O[C@@H](c3ccccc3)OC21 (stereo partly drawn) [Compound 108, 2-{6-[6-(3-Ethyl-ureido)-purin-9-yl]-2-cis-phenyl-tetrahydro-furo[3,4-d][1,3]dioxol-4-ylmethoxymethyl}-benzoic acid] |  | 0.098 | < 0.1
CCNC(=O)Nc1ncnc2c1ncn2C1CC(COCc2ncccc2C(=O)O)C2OC(/C=C/c3ccccc3)OC21 (stereo not drawn) [Compound 130, 2-{6-[6-(3-Ethyl-ureido)-purin-9-yl]-2-trans-styryl-tetrahydro-cyclopenta[1,3]dioxol-4-ylmethoxymethyl}-nicotinic acid] |  | 0.057 | 
CCNC(=O)Nc1ncnc2c1ncn2C1OC(CCc2c(F)cccc2C(=O)O)C2O[C@H](c3ccccc3)OC21 (stereo partly drawn) [Compound 158, 2-(2-{6-[6-(3-Ethyl-ureido)-purin-9-yl]-2-trans-phenyl-tetrahydro-furo[3,4-d][1,3]dioxol-4-yl}-ethyl)-3-fluoro-benzoic acid] | active molecules |  | 8
CCNC(=O)Nc1ncnc2c1ncn2C1OC(CCC(=O)O)C2OC(C=Cc3ccccc3)OC21 (stereo not drawn) [Compound 183, 3-{6-[6-(3-Ethyl-ureido)-purin-9-yl]-2-styryl-tetrahydro-furo[3,4-d][1,3]dioxol-4-yl}-propionic acid] | P2Y12 antagonist activity can be obtained |  | 0.376
CCNC(=O)Nc1ncnc2c1ncn2C1CC(COCC(=O)O)C2OC(C=Cc3ccccc3)OC21 (stereo not drawn) [Compound 189, {6-[6-(3-Ethyl-ureido)-purin-9-yl]-2-trans-styryl-tetrahydro-cyclopenta[1,3]dioxol-4-ylmethoxy}-acetic acid] | P2Y12 antagonist activity can be obtained | 0.243 | 
CCNC(=O)Nc1ncnc2c1ncn2C1OC(CNCC(=O)O)C2O[C@H](/C=C/c3ccccc3)OC21 (stereo partly drawn) [Compound 191, ({6-[6-(3-Ethyl-ureido)-purin-9-yl]-2-trans-styryl-tetrahydro-furo[3,4-d][1,3]dioxol-4-ylmethyl}-amino)-acetic acid] | P2Y12 antagonist activity can be obtained |  | 0.512
CCNC(=O)Nc1ncnc2c1ncn2C1OC(C(=O)O)C2O[C@H](/C=C/c3ccccc3)OC21 (stereo partly drawn) [Compound 210, 6-[6-(3-Ethyl-ureido)-purin-9-yl]-2-trans-styryl-tetrahydro-furo[3,4-d][1,3]dioxole-4-carboxylic acid] | P2Y12 antagonist activity can be obtained |  | 0.163
CCNC(=O)Nc1ncnc2c1ncn2C1CC(COC(=S)NCC(=O)O)C2O[C@H](/C=C/c3ccccc3)OC21 (stereo partly drawn) [Compound 233, {6-[6-(3-Ethyl-ureido)-purin-9-yl]-2-trans-styryl-tetrahydro-cyclopenta[1,3]dioxol-4-ylmethoxythiocarbonylamino}-acetic acid] | show P2Y12 antagonist activity |  | 0.503
CCNC(=O)Nc1ncnc2c1ncn2C1CC(CNC(=O)c2ccccc2C(=O)O)C2OC(C=Cc3ccccc3)OC21 (stereo not drawn) [Compound 239, N-{6-[6-(3-Ethyl-ureido)-purin-9-yl]-2-trans-styryl-tetrahydro-cyclopenta[1,3]dioxol-4-ylmethyl}-phthalamic acid] | show potent activity | 0.086 | 
